Assay [1] relates to male ICR mice. As to the kind of experiment: Analgesic assay by the tail-flick method in mice. Type of assay: in vivo. To be noted: for Intracerebroventricular AD50 (median antinociceptive dose) / Intracerebroventricular potency ratio / Intravenous AD50 (median antinociceptive dose) / Intravenous potency ratio: mice; for Intracerebroventricular AD50 (median antinociceptive dose): intracerebroventricular (central) injection; for Intracerebroventricular AD50 (median antinociceptive dose) / Intravenous AD50 (median antinociceptive dose): tail-flick; for Intracerebroventricular potency ratio / Intravenous potency ratio: relative to morphine sulfate = 1, molar basis; for Intravenous AD50 (median antinociceptive dose): intravenous injection via tail vein; for Tail-flick inhibition after intravenous injection: 1.1 to 8.5 mg/kg injected intravenously; for Effect of naloxone pretreatment on inhibition of the tail-flick response: Naloxone HCl 3 mg/kg subcutaneously 5 min before the analog; for Tail-flick inhibition after central application: doses 0.17 to 0.85 μg (D-Met analog) and 0.011 to 0.085 μg (D-Thr analog); for Analgesic activity (summary statement): mouse, in vivo. Here is the method:
For analgesic assay, male ICR mice weighing 25-30 g were used in all the experiments. The enkephalin analogs dissolved in saline were administered either centrally according to the method described by Haley and McCormick, Br. J. Pharmacol, 12, 12 (1957) or intravenously via the tail vein. The injection volume is 5 μl for central injection and 10 μl per gram body weight for intravenous injection. Naloxone HCl (3 mg/kg) was injected subcutaneously 5 min before the administration of enkephalin analogs. Analgesic activity was assayed by the tail-flick method of D'Amour and Smith, J. Pharmacol, Exp. Ther. 72, 74 (1941).
The percent of analgesia was calculated as [(T1 -T0)/(T2 -T0)] × 100, where a control latency (T0) was obtained from the mean of two latencies determined before drug injection; the test latencies (T1) were determined at various times after injection for each animal; the cutoff time (T2) for the tail-flick was 7 seconds. The median analgesic dose (AD50) and 95% confidence limits were calculated according to the method of Litchfield and Wilcoxon, J. Pharacol. Exp. Ther. 96, 99 (1949). The locomotor activity to the mice was measured with an electronic Fe 40 motility meter (Motron Produkter, Stockholm, Sweden). The detail of the experimental method has been described by Tseng et al., Nature (London) 263, 239 (1976).

Assay [2] relates to male ICR mice. To be noted: cited from earlier work.
The conditions of assay [3]: cited from earlier work; for Analgesic activity reported in the literature: in vivo.

Where a SMILES comes first, the peptide text is derived from it. [ ]: non-standard residue; d: D form. Thz = O=C(O)[C@@H]1CSCN1

As for “βc -Endorphin (YGGFMTSEKSQTPLVTLFKNAIIKNAHKKGQ; Beta-endorphin; UniProt P01203 1-31, looked up) [reference compound]”, in the assay on male ICR mice [1], the “Intracerebroventricular AD50 (median antinociceptive dose)” value (“Intracerebroventricular AD50” below) was determined as 0.032 nmole/mouse, the Intracerebroventricular potency ratio was found to be 34.7, the “Intravenous AD50 (median antinociceptive dose)” value (shortened to “Intravenous AD50”) came out at 2.7 µmol/kg and the Intravenous potency ratio is 4.2. In the assay with male ICR mice [2], the “Locomotor activity (previously shown)” value is “stimulate locomotor activity weakly or not at all”.

As to `C[C@H](O)[C@@H](NC(=O)[C@@H](N)Cc1ccc(O)cc1)C(=O)NCC(=O)N[C@@H](Cc1ccccc1)C(=O)N1CSC[C@H]1C(N)=O` [D-Thr^2,Thz^5 -Enkephalinamide, H-Tyr-D-Thr-Gly-Phe-Thz-NH2] (H-Y[dT]GF[Thz]-NH2), in the assay with male ICR mice [1], the “Tail-flick inhibition after intravenous injection” value was “active in inhibiting the tail-flick response”, the “Effect of naloxone pretreatment on inhibition of the tail-flick response” value was “blocked by the pretreatment of naloxone”, the “Intracerebroventricular AD50” value was determined as 0.04 nmole/mouse and the Intracerebroventricular potency ratio was 27.1. For the same compound, in the assay with male ICR mice [1], the “Intravenous AD50” value came to 2.40 µmol/kg, the Intravenous potency ratio was determined as 4.8 and the “Analgesic activity (summary statement)” value is listed as “potent analgesic agents”. Further, in the assay with male ICR mice [1] (applied centrally), the “Potency, times more potent than [D-Met^2, Thz^5 ]-enkephalinamide” value is 3.5 times; the “Tail-flick inhibition after central application” value was “dose-related increase in intensity and duration of the tail-flick inhibition”. Moreover, the Duration of analgesia result in the assay on male ICR mice [1] (intravenous injection) was “longer than that produced by [D-Met^2,Thz^5 ]-enkephalinamide”.

As to “D-Ala^2, MePhe^4, Met-O^5 -ol enkephalin”, in assay [3], the “Analgesic activity reported in the literature” value was “most potent analgesic of the group”. For the same compound, in assay [3] (oral), the “Oral activity reported in the literature” value is “orally active”.

For `CN1CC[C@]23c4c5ccc(O)c4O[C@H]2[C@@H](O)C=C[C@H]3[C@H]1C5.O=S(=O)(O)O` [Morphine sulfate, reference compound], in the assay on male ICR mice [1], the “Intracerebroventricular AD50” value is recorded as 1.11 nmole/mouse and the “Intravenous AD50” value was 11.4 µmol/kg.

Take Met-enkephalin [reference compound]: in the assay on male ICR mice [1], the “Intracerebroventricular AD50” value is on record as greater than 174 nmole/mouse, the Intracerebroventricular potency ratio is reported as less than 0.006, the “Intravenous AD50” value was greater than 60 µmol/kg and the Intravenous potency ratio is less than 0.19.

With “D-Ala^2,D-Leu^5 -Enkephalin [reference compound]”, in the assay on male ICR mice [1], the “Intracerebroventricular AD50” value is given as 0.035 nmole/mouse and the Intracerebroventricular potency ratio is 31.7.

Turning to `CSCC[C@@H](NC(=O)[C@@H](N)Cc1ccc(O)cc1)C(=O)NCC(=O)N[C@@H](Cc1ccccc1)C(=O)N1CSC[C@H]1C(N)=O` [D-Met^2,Thz^5 -Enkephalinamide, H-Tyr-D-Met-Gly-Phe-Thz-NH2] (H-Y[dM]GF[Thz]-NH2), in the assay on male ICR mice [1], the “Tail-flick inhibition after intravenous injection” value was “active in inhibiting the tail-flick response”, the “Effect of naloxone pretreatment on inhibition of the tail-flick response” value was “blocked by the pretreatment of naloxone”, the “Intracerebroventricular AD50” value was determined as 0.145 nmole/mouse and the Intracerebroventricular potency ratio amounted to 7.7. In addition, in the assay on male ICR mice [1], the “Intravenous AD50” value is 2.71 µmol/kg, the Intravenous potency ratio is 4.2 and the “Analgesic activity (summary statement)” value is “potent analgesic agents”. Also, in the assay with male ICR mice [1] (applied centrally), the “AD50, times higher than [D-Thr^2,Thz^5 ]-enkephalinamide” value worked out at 3.5 times; the “Tail-flick inhibition after central application” value is “dose-related increase in intensity and duration of the tail-flick inhibition”.

For the compound [D-Met^2, Pro^5 ]-enkephalinamide, in assay [3], the “Analgesic activity reported in the literature” value was “potent analgesic agent”.

These data come from patent US4103005A, “Novel-enkephalin analogs” (Hoffmann-La Roche Inc., priority 1977, dated 1978).
